Key:
Type in all cases: cell-based
[1] = test system: cancer cells; experiment: MTT test, positive controls on the different cells; conditions: at 0.4, 0.8, 1.6, 3.2, and 6.4 μm/L
Experimental: (§1) Cell incubation: the cancer cells strains are incubated in RPMI 1640 with 10% FBS, grow along the wall at 37° C. under 5% CO2 incubator.
(§2) Sample solutions: First prepare material at 100 mM in DMSO, then diluted to DMSO 4.95% using 3% DMSO FBS solution.
(§3) MTT test: cancer cells are incubated at a density of 5×10^3 cells/well in 96 well cell Culture plate for 24 hours, then added different sample solutions for 72 hours. At the end of incubation, 5 mg/mL MTT 15 μL was added to each well and stayed for 4 hours, vacuumed the solution, added DMSO 150 μL, shaked for 10 minutes, tested at […] for the OD value in the spectrophotometer, and calculated the inhibition rate of cell proliferation.
(§4) Inhibition rate of cell proliferation=(control OD−sample OD)/control OD)*100%

[2] = test system: HL-60; experiment: MTT test, inhibition of cell proliferation; conditions: Homo sapiens, 72 hours
Experimental: as §1, §2, §3, §4

[3] = test system: BGC-823; experiment: MTT test, inhibition of cell proliferation; conditions: Homo sapiens, 72 hours
Experimental: as §1, §2, §3, §4

[4] = test system: A431; experiment: MTT test, inhibition of cell proliferation; conditions: Homo sapiens, A-431, 72 hours
Experimental: as §1, §2, §3, §4

[5] = test system: K562; experiment: MTT test, inhibition of cell proliferation; conditions: Homo sapiens, 72 hours
Experimental: as §1, §2, §3, §4

[6] = test system: Bel-7402; experiment: MTT test, inhibition of cell proliferation; conditions: Homo sapiens, 72 hours
Experimental: as §1, §2, §3, §4

[7] = test system: L929; experiment: MTT test, inhibition of cell proliferation; conditions: Mus musculus, 72 hours
Experimental: as §1, §2, §3, §4

[8] = test system: A549; experiment: MTT test, inhibition of cell proliferation; conditions: Homo sapiens, 72 hours
Experimental: as §1, §2, §3, §4

[9] = test system: KB; experiment: MTT test, inhibition of cell proliferation; conditions: Homo sapiens, 72 h
Experimental: as §1, §2, §3, §4

[10] = test system: MCF-7; experiment: MTT test, inhibition of cell proliferation; conditions: Homo sapiens, MCF7, 72 h
Experimental: as §1, §2, §3, §4

[11] = test system: U937; experiment: MTT test, inhibition of cell proliferation; conditions: Homo sapiens, U-937, 72 hours
Experimental: as §1, §2, §3, §4

[12] = test system: A375s-2; experiment: MTT test, inhibition of cell proliferation; conditions: A375-S2, 72 hours
Experimental: as §1, §2, §3, §4

[13] = test system: HepG-2; experiment: MTT test, inhibition of cell proliferation; conditions: Homo sapiens, HepG2, 72 hours
Experimental: as §1, §2, §3, §4

[14] = test system: Hela; experiment: MTT test, inhibition of cell proliferation; conditions: Homo sapiens, 72 hours
Experimental: as §1, §2, §3, §4

Question: Which “inhibition for the different cells” value [1] does the source give for `O=P1(N(CCCl)CCCl)NCCCO1` (centres unmarked) [CYC, cyclophosphamide] here?
Answer: dose-dependent

Question: Which IC50 [2] does the source give for `CNC(=O)c1cc(Oc2ccc(NC(=O)Nc3nc(C)c(C(C)(C)C)s3)cc2)ccn1` [Compound A, 4-{4-[3-(5-tert-Butyl-4-methyl-thiazol-2-yl)-ureido]-phenoxy}-pyridine-2-carboxylic acid methylamide] here?
Answer: 11 to 30 µM

Question: What about the IC50 [3] of the same compound?
Answer: 11 to 30 µM

Question: And the IC50 [4]?
Answer: 11 to 30 µM

Question: And the IC50 [5]?
Answer: 31 to 50 µM

Question: What about the IC50 [6] of the same compound?
Answer: ≤ 10 µM

Question: What about the IC50 [7] of the same compound?
Answer: 31 to 50 µM

Question: What about the IC50 [8] of the same compound?
Answer: 31 to 50 µM

Question: And the IC50 ([9]; first listing (r12))?
Answer: 11 to 30 µM

Question: And the IC50 ([9]; second listing (r16))?
Answer: 11 to 30 µM

Question: And the IC50 ([10]; MCF-7, first listing (r2))?
Answer: ≤ 10 µM

Question: What about the IC50 ([10]; MCF-7, second listing (r6)) of the same compound?
Answer: ≤ 10 µM

Question: And the IC50 [11]?
Answer: 11 to 30 µM

Question: What about the IC50 [12] of the same compound?
Answer: 31 to 50 µM

Question: And the IC50 [13]?
Answer: 11 to 30 µM

Question: What about the IC50 [14] of the same compound?
Answer: 31 to 50 µM

Question: Which IC50 [2] does the source give for `CNC(=O)c1cc(Oc2ccc(CC(=O)Nc3ccc(Cl)c(C(F)(F)F)c3)cc2)ccn1` [Compound C, 4-(4-[(4-chloro-3-trifluoromethylphenylaminocarbonyl)-methyl]phenoxy)pyridin-2-carboxylic acid methylamide] here?
Answer: ≤ 10 µM

Question: What about the IC50 [3] of the same compound?
Answer: 11 to 30 µM

Question: What about the IC50 [4] of the same compound?
Answer: 11 to 30 µM

Question: And the IC50 [5]?
Answer: 31 to 50 µM

Question: What about the IC50 [6] of the same compound?
Answer: ≤ 10 µM

Question: What about the IC50 [7] of the same compound?
Answer: 31 to 50 µM

Question: And the IC50 [8]?
Answer: 31 to 50 µM

Question: And the IC50 ([9]; first listing (r12))?
Answer: 31 to 50 µM

Question: What about the IC50 ([9]; second listing (r16)) of the same compound?
Answer: 11 to 30 µM

Question: And the IC50 ([10]; MCF-7, first listing (r2))?
Answer: 31 to 50 µM

Question: What about the IC50 ([10]; MCF-7, second listing (r6)) of the same compound?
Answer: 11 to 30 µM

Question: And the IC50 [11]?
Answer: ≤ 10 µM

Question: And the IC50 [12]?
Answer: 11 to 30 µM

Question: What about the IC50 [13] of the same compound?
Answer: 11 to 30 µM

Question: What about the IC50 [14] of the same compound?
Answer: 11 to 30 µM

Question: Which “inhibition for the different cells” value [1] does the source give for `CC(=O)O[C@H]1C(=O)[C@@]2(C)[C@H]([C@H](OC(=O)c3ccccc3)[C@]3(O)C[C@H](OC(=O)[C@H](O)[C@@H](NC(=O)c4ccccc4)c4ccccc4)C(C)=C1C3(C)C)[C@]1(OC(C)=O)CO[C@@H]1C[C@@H]2O` [Paclitaxel] here?
Answer: dose-dependent
